Tests used:
HCT-116 [1] = experiment: Cytotoxicity against MMS-induced p53 -/- human HCT116 cells assessed as reduction in clonogenic survival at 13.7 uM incubated for 24 hrs by WST-1 assay relative to control; assay type: functional
DNA polymerase iota = biological target: T1, DNA polymerase iota (Homo sapiens, UniProt Q9UNA4); experiment: Inhibition of human DNA polymerase iota using poly(dA)/oligo(dT)18 (A/T, 2/1)/dTTP DNA template-primer substrate measured at 37 degC for 60 mins
T1 sequence (Q9UNA4 whole entry): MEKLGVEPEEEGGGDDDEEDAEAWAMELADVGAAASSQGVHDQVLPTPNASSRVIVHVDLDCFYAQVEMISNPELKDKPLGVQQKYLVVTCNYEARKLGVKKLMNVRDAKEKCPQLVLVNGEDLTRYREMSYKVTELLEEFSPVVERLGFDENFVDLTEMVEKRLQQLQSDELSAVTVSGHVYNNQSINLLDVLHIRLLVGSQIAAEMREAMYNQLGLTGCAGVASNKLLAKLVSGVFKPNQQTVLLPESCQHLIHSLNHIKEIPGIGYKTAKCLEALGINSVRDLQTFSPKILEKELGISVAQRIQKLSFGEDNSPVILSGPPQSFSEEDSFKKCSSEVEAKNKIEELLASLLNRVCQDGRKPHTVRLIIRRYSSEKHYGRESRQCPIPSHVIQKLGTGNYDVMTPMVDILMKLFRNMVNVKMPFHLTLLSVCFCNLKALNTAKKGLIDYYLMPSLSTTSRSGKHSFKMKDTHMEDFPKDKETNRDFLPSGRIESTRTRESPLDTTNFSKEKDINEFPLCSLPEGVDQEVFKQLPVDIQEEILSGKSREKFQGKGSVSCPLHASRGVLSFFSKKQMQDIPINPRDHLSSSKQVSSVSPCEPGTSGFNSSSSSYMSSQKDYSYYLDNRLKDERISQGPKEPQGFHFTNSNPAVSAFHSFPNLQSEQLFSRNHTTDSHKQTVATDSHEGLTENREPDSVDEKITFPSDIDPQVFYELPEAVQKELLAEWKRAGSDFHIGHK

HCT-116 [2] = experiment: Induction of apoptosis in p53 +/+ human HCT116 cells assessed as apoptotic cells at 13.2 uM incubated for 24 hrs by TUNEL analysis; assay type: functional
HCT-116 [3] = experiment: Cytotoxicity against p53 -/- human HCT116 cells assessed as growth inhibition incubated for 24 hrs by WST-1 assay; assay type: functional; details: HCT-116, 24 h, read-out: LD50 (the source's name)
HCT-116 [4] = experiment: Cytotoxicity against MMS-induced p53 +/+ human HCT116 cells assessed as reduction in clonogenic survival at 13.2 uM incubated for 24 hrs by WST-1 assay relative to control; assay type: functional
[5] = biological target: T2, DNA polymerase delta catalytic subunit (Homo sapiens, UniProt P28340); experiment: Inhibition of human DNA polymerase delta using poly(dA)/oligo(dT)18 (A/T, 2/1)/dTTP DNA template-primer substrate measured at 37 degC for 60 mins
T2 sequence (P28340 whole entry): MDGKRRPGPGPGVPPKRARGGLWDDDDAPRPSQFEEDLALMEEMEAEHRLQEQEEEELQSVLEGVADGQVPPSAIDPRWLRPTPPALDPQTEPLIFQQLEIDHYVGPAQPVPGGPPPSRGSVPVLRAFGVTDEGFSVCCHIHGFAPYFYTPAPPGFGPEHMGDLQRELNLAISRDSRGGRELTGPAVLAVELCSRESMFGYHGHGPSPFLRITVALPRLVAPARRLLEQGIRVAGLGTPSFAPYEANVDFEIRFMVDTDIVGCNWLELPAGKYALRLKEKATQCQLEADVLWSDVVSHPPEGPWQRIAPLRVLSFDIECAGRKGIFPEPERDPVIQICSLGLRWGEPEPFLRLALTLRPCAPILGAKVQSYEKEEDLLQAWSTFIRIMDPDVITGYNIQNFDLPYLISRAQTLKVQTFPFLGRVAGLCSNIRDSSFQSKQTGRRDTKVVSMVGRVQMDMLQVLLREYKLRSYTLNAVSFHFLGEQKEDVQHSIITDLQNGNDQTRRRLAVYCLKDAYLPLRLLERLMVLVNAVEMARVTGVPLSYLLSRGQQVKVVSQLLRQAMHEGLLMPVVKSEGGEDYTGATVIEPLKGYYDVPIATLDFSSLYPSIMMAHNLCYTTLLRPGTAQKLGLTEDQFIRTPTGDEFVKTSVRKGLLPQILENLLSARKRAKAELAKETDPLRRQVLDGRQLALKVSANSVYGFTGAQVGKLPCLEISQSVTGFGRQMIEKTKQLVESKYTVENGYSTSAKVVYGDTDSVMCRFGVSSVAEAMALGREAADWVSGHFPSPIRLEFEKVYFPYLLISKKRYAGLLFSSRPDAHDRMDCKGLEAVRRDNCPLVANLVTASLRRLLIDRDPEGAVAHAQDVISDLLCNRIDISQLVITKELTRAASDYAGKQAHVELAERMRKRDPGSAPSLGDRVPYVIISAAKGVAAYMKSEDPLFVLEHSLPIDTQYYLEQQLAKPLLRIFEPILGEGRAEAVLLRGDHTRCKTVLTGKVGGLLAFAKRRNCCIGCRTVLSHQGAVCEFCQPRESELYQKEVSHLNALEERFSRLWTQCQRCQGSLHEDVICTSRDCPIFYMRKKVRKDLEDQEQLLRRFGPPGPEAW

For `CC[C@H](C)[C@H](NC(=O)[C@H](Cc1ccc(O)cc1)NC(=O)OC(C)(C)C)C(=O)Nc1cccc2ccccc12`, the “fold change (FC)” value (HCT-116 [1]) was 25, the IC50 (DNA polymerase iota) was > 200 µM and the “fold change (FC)” value (HCT-116 [2]) was 5. The CC50 (HCT-116 [3]) was 13.7 µM, the “fold change (FC)” value (HCT-116 [4]) was 2 and the IC50 [5] was > 200 µM.
